In patent US10131657B2, “Bromodomain inhibitors” (AbbVie Inc., priority 2013, dated 2018) one finds EC50 data, which are given here for 25 compounds.

Molecules are shown by their SMILES.

This experiment deals with breast cancer cell line MX-1. The experiment in a line: MX-1 cell line proliferation assay, Method A. Format: cell-based. The following applies: Homo sapiens, MX1; MX-1 cells, 96-well, 72 hours, Cell Titer Glo; read-out: Cellular proliferation: EC50 Method A. As to the method:
The impact of compounds of the Examples on cancer cell proliferation was determined using the breast cancer cell line MX-1 (ATCC) in a 3-day proliferation assay and the data are reported in Table 1.
MX-1 cells were maintained in RPMI 1640 medium (Sigma) supplemented with 10% FBS at 37° C. and an atmosphere of 5% CO2. For compound testing, MX-1 cells were plated in 96-well black bottom plates at a density of 5000 cells/well in 90 μL of culture media and incubated at 370 overnight to allow cell adhesion and spreading. Compound dilution series were prepared in DMSO via a 3-fold serial dilution from 3 mM to 0.1 μM. The DMSO dilution series were then diluted 1:100 in phosphate buffered saline, and 10 μL of the resulted solution were added to the appropriate wells of the MX-1 cell plate. The final compound concentrations in the wells were 3, 1, 0.3, 0.1, 0.03, 0.01, 0.003, 0.001, 0.0003 and 0.0001 μM.
Luminescence readings from the Cell Titer Glo assay were normalized to the DMSO treated cells and analyzed using the GraphPad Prism software with sigmoidal curve fitting to obtain ECs50s. The minimum significant ratio (MSR) was determined to evaluate assay reproducibility (Eastwood et al., (2006) J Biomol Screen, 11: 253-261).

As to `Cc1cc(-c2ccc(-c3cn(C)c(=O)c4[nH]ccc34)c(OCC3CC3)c2)[nH]n1` [Example 1, 4-[2-(cyclopropylmethoxy)-4-(3-methyl-1H-pyrazol-5-yl)phenyl]-6-methyl-1,6-dihydro-7H-pyrrolo[2,3-c]pyridin-7-one], the EC50 was 151 nM. Then `CCS(=O)(=O)Nc1cc(-c2cn(C)c(=O)c3[nH]ccc23)c(Oc2ccc(F)cc2F)cc1CN(C)C` [Example 2, N-[4-(2,4-difluorophenoxy)-2-[(dimethylamino)methyl]-5-(6-methy-7-oxo-6,7-dihydro-1H-pyrrolo[2,3-c]pyridin-4-yl)phenyl]ethanesulfonamide], with 110 nM; and `CCS(=O)(=O)Nc1cc(-c2cn(C)c(=O)c3[nH]ccc23)c(Oc2ccc(F)cc2F)cc1CN1CCCCC1` [Example 3, N-[4-(2,4-difluorophenoxy)-5-(6-methyl-7-oxo-6,7-dihydro-1H-pyrrolo[2,3-c]pyridin-4-yl)-2-(piperidin-1-ylmethyl)phenyl]ethanesulfonamide], with 36.8 nM.

As for `CCS(=O)(=O)Nc1cc(-c2cn(C)c(=O)c3[nH]ccc23)c(Oc2ccc(F)cc2F)cc1CN1CCOCC1` [Example 4, N-[4-(2,4-difluorophenoxy)-5-(6-methyl-7-oxo-6,7-dihydro-1H-pyrrolo[2,3-c]pyridin-4-yl)-2-(morpholin-4-ylmethyl)phenyl]ethanesulfonamide], the EC50 turned out to be 16.3 nM. `CCS(=O)(=O)Nc1cc(-c2cn(C)c(=O)c3[nH]ccc23)c(Oc2ccc(F)cc2F)cc1CN1CCN(C)CC1` [Example 5, N-{4-(2,4-difluorophenoxy)-5-(6-methyl-7-oxo-6,7-dihydro-1H-pyrrolo[2,3-c]pyridin-4-yl)-2-[(4-methylpiperazin-1-yl)methyl]phenyl}ethanesulfonamide]: the EC50 came to 40.1 nM.

`CCS(=O)(=O)Nc1cc(-c2cn(C)c(=O)c3[nH]ccc23)c(Oc2ccc(F)cc2F)cc1CO` [Example 6, N-[4-(2,4-difluorophenoxy)-2-(hydroxymethyl)-5-(6-methyl-7-oxo-6,7-dihydro-1H-pyrrolo[2,3-c]pyridin-4-yl)phenyl]ethanesulfonamide]: the EC50 is 29.1 nM. For `CCS(=O)(=O)Nc1cc(-c2cn(C)c(=O)c3[nH]ccc23)c(Oc2ccc(F)cc2F)cc1CNC1CCCC1` [Example 7, N-{2-[(cyclopentylamino)methyl]-4-(2,4-difluorophenoxy)-5-(6-methyl-7-oxo-6,7-dihydro-1H-pyrrolo[2,3-c]pyridin-4-yl)phenyl}ethanesulfonamide], the EC50 was 139 nM. In the case of `CCS(=O)(=O)Nc1cc(-c2cn(C)c(=O)c3[nH]ccc23)c(Oc2ccc(F)cc2F)cc1C(N)=O` [Example 8, 5-(2,4-difluorophenoxy)-2-[(ethylsulfonyl)amino]-4-(6-methyl-7-oxo-6,7-dihydro-1H-pyrrolo[2,3-c]pyridin-4-yl)benzamide], the EC50 is 44.9 nM. With `CCS(=O)(=O)Nc1cc(-c2cn(C)c(=O)c3[nH]ccc23)c(Oc2ccc(F)cc2F)cc1C(=O)NC1CCCC1` [Example 9, N-cyclopentyl-5-(2,4-difluorophenoxy)-2-[(ethylsulfonyl)amino]-4-(6-methyl-7-oxo-6,7-dihydro-1H-pyrrolo[2,3-c]pyridin-4-yl)benzamide], the EC50 was determined as 65.3 nM. In the case of `CCS(=O)(=O)Nc1cc(-c2cn(C)c(=O)c3[nH]ccc23)c(Oc2ccc(F)cc2F)cc1C(=O)N(C)C` [Example 10, 5-(2,4-difluorophenoxy)-2-[(ethylsulfonyl)amino]-N,N-dimethyl-4-(6-methyl-7-oxo-6,7-dihydro-1H-pyrrolo[2,3-c]pyridin-4-yl)benzamide], the EC50 amounted to 98.2 nM.

Take `CCS(=O)(=O)Nc1cc(-c2cn(C)c(=O)c3[nH]ccc23)c(Oc2ccc(F)cc2F)cc1C(=O)O` [Example 11, 5-(2,4-difluorophenoxy)-2-[(ethylsulfonyl)amino]-4-(6-methyl-7-oxo-6,7-dihydro-1H-pyrrolo[2,3-c]pyridin-4-yl)benzoic acid]: the EC50 turned out to be 452 nM. Regarding `CCS(=O)(=O)Nc1cc(-c2cn(C)c(=O)c3[nH]ccc23)c(Oc2ccc(F)cc2F)cc1C(=O)NC1CCOCC1` [Example 12, 5-(2,4-difluorophenoxy)-2-[(ethylsulfonyl)amino]-4-(6-methyl-7-oxo-6,7-dihydro-1H-pyrrolo[2,3-c]pyridin-4-yl)-N-(tetrahydro-2H-pyran-4-yl)benzamide], the EC50 amounted to 68.4 nM.

For `CCS(=O)(=O)Nc1cc(-c2cn(C)c(=O)c3[nH]ccc23)c(Oc2ccc(F)cc2F)cc1CNCCO` [Example 13, N-[4-(2,4-difluorophenoxy)-2-{[(2-hydroxyethyl)amino]methyl}-5-(6-methyl-7-oxo-6,7-dihydro-1H-pyrrolo[2,3-c]pyridin-4-yl)phenyl]ethanesulfonamide], the EC50 was determined as 307 nM. With `CCS(=O)(=O)Nc1cc(-c2cn(C)c(=O)c3[nH]ccc23)c(Oc2ccc(F)cc2F)cc1CN1CCCC1c1ccccc1` (stereo not shown) [Example 14, N-{4-(2,4-difluorophenoxy)-5-(6-methyl-7-oxo-6,7-dihydro-1H-pyrrolo[2,3-c]pyridin-4-yl)-2-[(2-phenylpyrrolidin-1-yl)methyl]phenyl}ethanesulfonamide], the EC50 is 184 nM.

`CCS(=O)(=O)Nc1cc(-c2cn(C)c(=O)c3[nH]ccc23)c(Oc2ccc(F)cc2F)c(C2CC2)c1` [Example 15, N-[3-cyclopropyl-4-(2,4-difluorophenoxy)-5-(6-methyl-7-oxo-6,7-dihydro-1H-pyrrolo[2,3-c]pyridin-4-yl)phenyl]ethanesulfonamide]: the EC50 was found to be 105 nM.

With `CCS(=O)(=O)c1ccc(OCC2CC2(F)F)c(-c2cn(C)c(=O)c3[nH]c(CN4CCN(c5ccncc5)CC4)cc23)c1` (stereo not shown) [Example 16, 4-{2-[(2,2-difluorocyclopropyl)methoxy]-5-(ethylsulfonyl)phenyl}-6-methyl-2-{[4-(pyridin-4-yl)piperazin-1-yl]methyl}-1,6-dihydro-7H-pyrrolo[2,3-c]pyridin-7-one], the EC50 stood at 202 nM. Then `CCS(=O)(=O)c1ccc(OCC2CC2(F)F)c(-c2cn(C)c(=O)c3[nH]c(CN4CCN(c5cccnc5)CC4)cc23)c1` (stereo not shown) [Example 20, 4-{2-[(2,2-difluorocyclopropyl)methoxy]-5-(ethylsulfonyl)phenyl}-6-methyl-2-{[4-(pyridin-3-yl)piperazin-1-yl]methyl}-1,6-dihydro-7H-pyrrolo[2,3-c]pyridin-7-one], with 101 nM. For the compound `Cn1cc(-c2cc(S(C)(=O)=O)ccc2Oc2cccc(C(=O)NC3CC3)c2)c2cc[nH]c2c1=O` [Example 21, N-cyclopropyl-3-[2-(6-methyl-7-oxo-6,7-dihydro-1H-pyrrolo[2,3-c]pyridin-4-yl)-4-(methylsulfonyl)phenoxy]benzamide], the EC50 turned out to be 487 nM. Then `CN1CCN(C(=O)c2cccc(Oc3ccc(S(C)(=O)=O)cc3-c3cn(C)c(=O)c4[nH]ccc34)c2)CC1` [Example 22, 6-methyl-4-[2-{3-[(4-methylpiperazin-1-yl)carbonyl]phenoxy}-5-(methylsulfonyl)phenyl]-1,6-dihydro-7H-pyrrolo[2,3-c]pyridin-7-one], with more than 1000 nM.

As to `Cn1cc(-c2cc(S(C)(=O)=O)ccc2Oc2cccc(C(=O)N3CCN(CCn4ccnc4)CC3)c2)c2cc[nH]c2c1=O` [Example 23, 4-{2-[3-({4-[2-(1H-imidazol-1-yl)ethyl]piperazin-1-yl}carbonyl)phenoxy]-5-(methylsulfonyl)phenyl}-6-methyl-1,6-dihydro-7H-pyrrolo[2,3-c]pyridin-7-one], the EC50 was more than 1000 nM. In the case of `Cn1cc(-c2cc(S(C)(=O)=O)ccc2Oc2cccc(C(=O)N3CCC(N4CCCC4)CC3)c2)c2cc[nH]c2c1=O` [Example 24, 6-methyl-4-[5-(methylsulfonyl)-2-(3-{[4-(pyrrolidin-1-yl)piperidin-1-yl]carbonyl}phenoxy)phenyl]-1,6-dihydro-7H-pyrrolo[2,3-c]pyridin-7-one], the EC50 was more than 1000 nM.

`Cn1cc(-c2cc(S(C)(=O)=O)ccc2Oc2cccc(C(=O)NC3CCCCC3)c2)c2cc[nH]c2c1=O` [Example 25, N-cyclohexyl-3-[2-(6-methyl-7-oxo-6,7-dihydro-1H-pyrrolo[2,3-c]pyridin-4-yl)-4-(methylsulfonyl)phenoxy]benzamide]: the EC50 came to 134 nM. Consider `Cn1cc(-c2cc(S(C)(=O)=O)ccc2Oc2cccc(C(=O)NCCCN3CCCC3=O)c2)c2cc[nH]c2c1=O` [Example 27, 3-[2-(6-methyl-7-oxo-6,7-dihydro-1H-pyrrolo[2,3-c]pyridin-4-yl)-4-(methylsulfonyl)phenoxy]-N-[3-(2-oxopyrrolidin-1-yl)propyl]benzamide], for which the EC50 was 442 nM.

With `Cn1cc(-c2cc(S(C)(=O)=O)ccc2Oc2cccc(C(=O)N3CCN(C4CCCC4)CC3)c2)c2cc[nH]c2c1=O` [Example 28, 4-[2-{3-[(4-cyclopentylpiperazin-1-yl)carbonyl]phenoxy}-5-(methylsulfonyl)phenyl]-6-methyl-1,6-dihydro-7H-pyrrolo[2,3-c]pyridin-7-one], the EC50 amounted to 195 nM. As for `CN(C)CCN1CCN(C(=O)c2cccc(Oc3ccc(S(C)(=O)=O)cc3-c3cn(C)c(=O)c4[nH]ccc34)c2)CC1` [Example 29, 4-{2-[3-({4-[2-(dimethylamino)ethyl]piperazin-1-yl}carbonyl)phenoxy]-5-(methylsulfonyl)phenyl}-6-methyl-1,6-dihydro-7H-pyrrolo[2,3-c]pyridin-7-one], the EC50 was more than 1000 nM.
